Test results as given in the NIST ThermoML archive (doi:10.1016/j.jct.2009.09.003).
“And” between values parts separate entries of the source, which are not always exact repeats. Identical values can stand only once.

Settings: Liquid, Transpiration

NCCNCCNCCN [1,2-ethanediamine, N,N'-bis(2-aminoethyl)-]
Settings | vapor or sublimation pressure
338.2 K | 0.00866 kPa
340.7 K | 0.01059 kPa
343.5 K | 0.0135 kPa
346.3 K | 0.01645 kPa
347.2 K | 0.01792 kPa
348.2 K | 0.01944 kPa
349.4 K | 0.0209 kPa
350.1 K | 0.022 kPa
350.2 K | 0.02259 kPa
352.4 K | 0.02695 kPa
353.2 K | 0.02857 kPa
355.2 K | 0.03317 kPa
355.4 K | 0.03445 kPa
356.2 K | 0.03575 kPa
358.5 K | 0.04226 kPa
359.2 K | 0.04519 kPa
361.2 K | 0.05252 kPa
363.2 K | 0.05873 kPa
364.2 K | 0.0654 kPa
365.4 K | 0.06908 kPa
367.4 K | 0.07992 kPa
368.1 K | 0.08563 kPa and 0.08484 kPa
370.2 K | 0.09747 kPa
370.4 K | 0.09756 kPa
371 K | 0.1008 kPa
373.3 K | 0.1176 kPa

CN1CCN(C)CC1 [1,4-dimethylpiperazine]
Settings | vapor or sublimation pressure [kPa]
268.1 K | 0.2307
270.3 K | 0.2719
274.1 K | 0.3511
274.8 K | 0.3656
278.5 K | 0.486
280.1 K | 0.5177
283.6 K | 0.6602
286.1 K | 0.7611
288.5 K | 0.8272
291.1 K | 0.9973
293.6 K | 1.116
296.1 K | 1.359
298.5 K | 1.561
301.1 K | 1.834
303.4 K | 2.102
306.1 K | 2.518
308.5 K | 2.6
311.1 K | 3.202

NCCN1CCNCC1 [N-(β-aminoethyl)piperazine)]
Settings | vapor or sublimation pressure
295.7 K | 0.0064 kPa
297.7 K | 0.0079 kPa
300.4 K | 0.0096 kPa
303.3 K | 0.0127 kPa and 0.0131 kPa
304.7 K | 0.0144 kPa
305.6 K | 0.015 kPa
308.2 K | 0.0193 kPa
310.2 K | 0.0227 kPa
312.6 K | 0.028 kPa
314.6 K | 0.0333 kPa
317.5 K | 0.0414 kPa
320.7 K | 0.0534 kPa
323.1 K | 0.0653 kPa
326.4 K | 0.0835 kPa
328.2 K | 0.0943 kPa
330.5 K | 0.1135 kPa
330.7 K | 0.1203 kPa
333.1 K | 0.1411 kPa
333.2 K | 0.134 kPa
335.2 K | 0.1628 kPa
338.1 K | 0.1943 kPa

CN1CCN(CCN)CC1 [1-(2-aminoethyl)-4-methyl-piperazine]
Settings | vapor or sublimation pressure
297.8 K | 0.0246 kPa
298.8 K | 0.0265 kPa
302 K | 0.0341 kPa
302.7 K | 0.0368 kPa
304.6 K | 0.0433 kPa
307.2 K | 0.0548 kPa and 0.0538 kPa
310.5 K | 0.0691 kPa
311.6 K | 0.0765 kPa
313.2 K | 0.085 kPa
314.3 K | 0.0925 kPa
315.9 K | 0.1026 kPa
317.1 K | 0.1153 kPa
320.2 K | 0.1434 kPa
323.7 K | 0.1872 kPa
327.7 K | 0.2497 kPa
331.8 K | 0.3218 kPa
